Our source for the EC50 values is patent publication US9708332B2, “Respiratory syncytial virus inhibitors” (MEDIVIR AB, priority 2013, dated 2017).

In this assay the test system is RSV (Long). As to the kind of experiment: RSV cytopathic effect (CPE)-based viral replication assay in HEp-2 cells. Particulars: human respiratory syncytial virus, 72 h; HEp-2 cells infected with RSV Long at MOI 0.015, 3 days, cell viability by CellTiter-Glo; read-out: Ec50 (nM) Example A. The method, then: Compounds of the invention are initially tested in a cytopathic effect (CPE)-based viral replication assay using immortalized cells and a laboratory strain of RSV (Long). This assay evaluates the ability of a compound to inhibit viral replication. Assay plates are prepared by seeding 2,500 HEp-2 cells (ATCC) per well of a 384-well black clear-bottom plate (Greiner Bio-One) in 20 μL of assay media (defined as DMEM supplemented with 2% heat-inactivated fetal bovine serum and 1% Penicillin/Streptomycin). Assay plates are incubated overnight at 37° C. in an incubator containing 5% CO2. The following day, a 10-point serial dilution of test compound is prepared in DMSO. Compounds are subsequently diluted with assay media and 20 μL of diluted compound (containing 1.5% DMSO) is transferred to an assay plate for evaluation of antiviral activity. For the CPE assay, cells are infected at a MOI of 0.015 using 20 μL of RSV Long (ATCC) diluted in assay media. The DMSO concentration is constant throughout the assay plate, including the negative and positive controls. The assay plate is incubated for 3 days at 37° C. in an incubator containing 5% CO2. Cell viability is evaluated with the addition of 10 μL of CellTiter-Glo (ProMega). Luminescence is measured using an EnVision plate reader (Perkin Elmer). EC50 values are calculated using the raw data from the CPE assays, respectively.
Background: Cytopathic effects are the visible damage that an infection or toxin causes in cultured cells.

Usually EC50 stands for the midpoint of the concentration-response curve. For `CN(Cc1cnn(C)c1)c1nc(Cn2c(=O)n(C3CC3)c3ccccc32)nc2ccccc12` [compound 1005], the EC50 turned out to be 970 nM.
The result for `O=c1c2ccccc2n2nccc2n1Cc1nc(OC2CCOC2)c2ccccc2n1` (stereo not shown) [compound 1198] reads 21 nM; that for `O=c1n(Cc2nc(OCCCO)c3ccccc3n2)c2cnccc2n1C1CC1` [Compound 1002], 260 nM.
In the case of `O=c1n(Cc2nc(OCC3CCOC3)c3ccccc3n2)c2cccnc2n1C1CC1` (stereo not shown) [compound 1222] it was 490 nM; in that of `Cn1cc(-c2ccc3c(OCC4CCOC4)nc(Cn4c(=O)n(C5CC5)c5ccncc54)nc3c2)cn1` (stereo not shown) [Compound 1043], 6400 nM.
For the compound `O=c1n(Cc2nc(OC3CCOC3)c3ccc(Cl)cc3n2)c2cnccc2n1C1CC1` (stereo not shown) [compound 1061], the EC50 is 29 nM.
In the case of `O=c1n(Cc2nc(OCC3CCOC3)c3cc(Cl)ccc3n2)c2cnccc2n1C1CC1` (stereo not shown) [compound 1054], the half-maximal effective concentration (EC50) came to 600 nM.
Take `COc1cccc2c(=O)n(Cc3nc(N(C)Cc4cnn(C)c4)c4ccccc4n3)c3cc(C)nn3c12` [compound 1215]: the 50% effective concentration (EC50) came to 31 nM.
In the case of `Cc1cc2n(Cc3nc(N(C)Cc4cnn(C)c4)c4ccccc4n3)c(=O)c3ccncc3n2n1` [compound 1212] it was 15 nM; in that of `O=c1n(Cc2nc(OC3CCOC3)c3ccccc3n2)c2ncccc2n1C1CC1` (stereo not shown) [compound 1221], 170 nM; in that of `O=c1n(Cc2nc(OCCCO)c3ccccc3n2)c2ccccc2n1C1CC1` [Compound 1069], 1200 nM.
In the case of `Cc1cc2n(Cc3nc(N(C)CC4CCOC4)c4ccccc4n3)c(=O)c3ccccc3n2n1` (stereo not shown) [compound 1140] it was 26 nM.
As for `O=c1c2ccccc2n2nncc2n1Cc1nc(OC2CCOC2)c2ccccc2n1` (stereo not shown) [compound 1200], the EC50 amounted to 29 nM.
In the case of `O=c1n(Cc2nc(OCC3CCOC3)c3c(Cl)cccc3n2)c2cnccc2n1C1CC1` (stereo not shown) [compound 1085] it was 280 nM; in that of `CN(CC1CCOC1)c1nc(Cn2ccc3nccn3c2=O)nc2ccccc12` (stereo not shown) [compound 1119], 7700 nM.
In the case of `O=c1n(Cc2nc(OC3CCOC3)c3ccccc3n2)c2cnccc2n1C1CC1` (stereo not shown) [compound 1206] it was 110 nM; in that of `O=c1n(Cc2nc(OCC3CCOC3)c3ccc(Cl)cc3n2)c2cnccc2n1C1CCOCC1` (stereo not shown) [compound 1095], 380 nM.
In the case of `O=c1n(Cc2nc(OC3CCOC3)c3ccc(Cl)cc3n2)c2ncccc2n1C1CC1` (stereo not shown) [compound 1219] it was 200 nM; in that of `O=C1CCCN1CCOc1nc(Cn2c(=O)n(C3CC3)c3ccncc32)nc2cc(Br)ccc12` [compound 1081], 280 nM.
With `O=c1n(Cc2nc(OC3CCOC3)c3ccc(Cl)cc3n2)c2cccnc2n1C1CC1` (stereo not shown) [compound 1218], the concentration for a half-maximal effect (EC50) came to 380 nM.
In the case of `O=c1n(Cc2nc(OC3CCOC3)c3ccc(Cl)cc3n2)c2c[n+]([O-])ccc2n1C1CC1` (stereo not shown) [Compound 1104], the EC50 worked out at 130 nM.
In the case of `O=c1n(Cc2nc(OCC3CCOC3)c3ccc(Cl)cc3n2)c2cnccc2n1C1CCS(=O)(=O)C1` (stereo not shown) [compound 1096] it was 300 nM; in that of `Cc1cc(CN(C)c2nc(Cn3c(=O)c4ccccc4c4ccccc43)nc3ccccc23)on1` [compound 1168], 280 nM.
Turning to `CCc1cc2n(Cc3nc(OC4CCOC4)c4ccccc4n3)c(=O)c3ccccc3n2n1` (stereo not shown) [compound 1199], the concentration for a half-maximal effect (EC50) amounted to 8.8 nM.
The result for `Cc1c(C#N)c(=O)n(Cc2nc(OC3CCOC3)c3ccccc3n2)c2ccccc12` (stereo not shown) [compound 1204] reads 79 nM; that for `Cc1cc2n(Cc3nc(N(C)Cc4cnn(C)c4)c4ccccc4n3)c(=O)c3ccccc3n2n1` [compound 1027], 10 nM.
The result for `O=c1n(Cc2nc(OCC3CCOC3)c3ccccc3n2)c2ncccc2n1C1CC1` (stereo not shown) [compound 1020] reads 450 nM; that for `CN(Cc1cnn(C)c1)c1nc(Cn2c(=O)c3ccccc3n3cncc23)nc2ccccc12` [compound 1183], 470 nM.
As for `Cc1cc2n(Cc3nc(OCC4CCOC4)c4ccc(Br)cc4n3)c(=O)c3ccccc3n2n1` (stereo not shown) [compound 1047], the EC50 stood at 1700 nM.
The result for `O=c1n(Cc2nc(OCC3CCOC3)c3cccc(Cl)c3n2)c2cnccc2n1C1CC1` (stereo not shown) [compound 1090] reads 710 nM; that for `Cc1cc2n(Cc3nc(NC(C)c4cnn(C)c4)c4ccccc4n3)c(=O)c3ccccc3n2n1` (stereo not shown) [compound 1180], 1400 nM.
With `Cc1ccc2c(OCC3CCOC3)nc(Cn3c(=O)n(C4CC4)c4ccncc43)nc2c1` (stereo not shown) [Compound 1034], the concentration giving a half-maximal response (EC50) amounted to 28 nM.
The result for `O=c1n(Cc2nc(CCCCO)c3ccccc3n2)c2ccccc2n1C1CC1` [Compound 1016] reads 1100 nM.
As to `N#Cc1cc2ccccc2n(Cc2nc(OC3CCOC3)c3ccccc3n2)c1=O` (stereo not shown) [compound 1108], the EC50 is 1600 nM.
Regarding `CN(Cc1cnn(C)c1)c1nc(Cn2c(=O)c3ccccc3n3ncc(C#N)c23)nc2ccccc12` [compound 1179], the EC50 is 400 nM.
For `Cn1c(=O)n(Cc2nc(OCC3CCOC3)c3ccccc3n2)c2ccccc21` (stereo not shown) [compound 1142], the EC50 was found to be 480 nM.
The result for `Cc1cc2n(Cc3nc(OCC4CCOC4)c4cc(C#N)ccc4n3)c(=O)c3ccccc3n2n1` (stereo not shown) [Compound 1074] reads 2.8 nM.
In the case of `CS(=O)(=O)CCCOc1nc(Cn2c(=O)n(C3CC3)c3ccncc32)nc2cc(Cl)ccc12` [Compound 1065] it was 43 nM.
The result for `N#Cc1ccc2nc(Cn3c(=O)n(C4CC4)c4ccncc43)nc(OCC3CCOC3)c2c1` (stereo not shown) [Compound 1036] reads 140 nM; that for `Cc1cc(CN(C)c2nc(CN3C(=O)N(C4CC4)Cc4ccccc43)nc3ccccc23)on1` [compound 1164], 1000 nM.
Regarding `O=c1n(Cc2nc(OC3COC3)c3ccc(Cl)cc3n2)c2cnccc2n1C1CC1` [compound 1068], the 50% effective concentration (EC50) came to 63 nM.
The result for `Cc1ncc2n(Cc3nc(OC4CCOC4)c4ccccc4n3)c(=O)c3ccccc3n12` (stereo not shown) [compound 1097] reads 93 nM; that for `Cc1cc(CN(C)c2nc(Cn3c(=O)n(C4CC4)c4ccncc43)nc3ccccc23)on1` [compound 1163], 590 nM; that for `Cc1ncn2c3ccccc3c(=O)n(Cc3nc(OC4CCOC4)c4ccccc4n3)c12` (stereo not shown) [compound 1100], 25 nM.
The result for `Cc1cc2n(Cc3nc(OC4CCOC4)c4ccccc4n3)c(=O)c3ccccc3n2n1` (stereo not shown) [compound 1205] reads 6.6 nM.
In the case of `Cc1cc2n(Cc3nc(OCC4CCOC4)c4ccccc4n3)c(=O)c3ccccc3n2n1` (stereo not shown) [compound 1070] it was 16 nM.
